# “Also recorded” adds a separate entry of the source. d = 2'-deoxy (DNA); m = 2'-O-methyl
# Tests used:
# A549 cells = test: Growth inhibition by antisense oligos, A549; format: cell-based, human; conditions: 50 nM, 48 hour, vs cells treated with lipofectin
# Protocol: (§1) For all ex vivo oligo treatment, human A549 human […] carcinoma cells were seeded in 10 cm tissue culture dishes one day prior to oligonucleotide treatment. The cell lines were obtained from the American Type Culture Collection (ATCC) (Manassas, Va.) and were grown under the recommended culture conditions. Before the addition of the oligonucleotides, cells were washed with PBS (phosphate buffered saline). Next, lipofectin transfection reagent (GIBCO BRL Mississauga, Ontario, Calif.), at a concentration of 6.25 μg/ ml, was added to serum free OPTIMEM medium (GIBCO BRL, Rockville, Md.), which was then added to the cells. The oligonucleotides were added directly to the cells (i.e., one oligonucleotide per plate of cells). Mismatched oligonucleotides were used as controls. The same concentration of oligonucleotide (e.g., 50 nM) was used per plate of cells for each oligonucleotide tested.
# (§2) In order to determine the effect of HDAC ODNs on cell growth inhibition and cell death through apoptosis, A549, T24, DuI45, HCT116 cells (ATCC, Manassas, Va.), or HMEC cells (BioWhittaker, Walkersville, Md.) were treated with HDAC ODNs as previously described.
# (§3) For the cell growth inhibition analysis, human cancer or normal cells were treated with 50 nM of paired AS or MM oligos directed against human HDAC-1, HDAC-7 or HDAC-8for up to 96 hours. Cell numbers were counted every day by trypan blue exclusion. Percentage of inhibition was calculated as (100 - AS cell numbers/control cell numbers)%.
# p21 protein = p21 protein expression in A549 cells; format: cell-based, human
# human HDAC-7 mRNA = test: HDAC-7 mRNA expression in A549 cells, Northern blot; format: cell-based; conditions: for HDAC-7 RNA expression, initial screen: 100 nM; for HDAC-7 RNA expression, initial screen / HDAC-7 mRNA expression, dose response (FIG. 1): 24 hours; for HDAC-7 mRNA expression, dose response (FIG. 1): 25 or 50 nM
# Protocol: To identify antisense oligodeoxynucleotide (ODN) capable of inhibiting HDAC-7 expression in human cancer cells, eighteen phosphorothioate ODNs containing sequences complementary to the 5′ or 3′ UTR of the human […] (GenBank Accession No. AF239243) were initially screened in A549 cells at 100 nM. Cells were harvested after 24 hours of treatment, and HDAC-7 RNA expression was analyzed by Northern blot analysis. […] Total RNAs were harvested and were analyzed by Northern Blot. GAPDH expression was analyzed to indicate total RNA loading in each lane.
# (§4) In order to determine the dose response of HDAC7 antisense inhibitors to reduce HDAC7 message at the mRNA level, Human A549 cells were treated with 25 or 50 nM of antisense (AS1 and AS2) oligos directed against human HDAC-7 or the corresponding mismatch of AS1 (MM1) oligo or an universal mismatch (UMM) for 24 hours. […] The time dependence of HDAC7 antisense inhibitors on blocking HDAC7 gene expression at the mRNA level was analyzed by treating A549 cells with 50 nM AS1 or MM1 oligos. […] Similarly, A549 cells were treated with 25 nM or 50 nM of AS1 or AS2 oligos directed against human HDAC-8 or its MM oligo for AS2 (MM2) for 24 hours. AS-2 oligo against human HDAC8 at 50 nM was also used to treat A549 cells for 24 or 48 hours.
# as §1
# (§5) Cells were harvested, and total RNAs were analyzed by Northern blot analysis. Briefly, total RNA was extracted using RNeasy miniprep columns (QIAGEN Canada, Mississauga, Ontario). Ten to twenty […] of total RNA was run on a formaldehyde-containing 1% agarose gel with 0.5 M sodium phosphate (pH 7.0) as the buffer system. RNAs were then transferred to nitrocellulose membranes and hybridized with the indicated radiolabeled DNA probes. Autoradiography was performed using conventional procedures.
# Du145 cells = test: Growth inhibition by antisense oligos, Du145; format: cell-based, human; conditions: 50 nM, 48 hour, vs cells treated with lipofectin
# Protocol: as §1, §2, §3
# human HDAC-7 protein = test: HDAC-7 protein expression in A549 cells, SDS-PAGE and antibody probing; format: cell-based; conditions: 25 or 50 nM, 48 hours (time course 24 or 48 hours)
# Protocol: In order to determine whether treatment with HDAC ODNs would inhibit HDAC protein expression, human A549 cancer cells were treated with 25 or 50 nM of paired antisense or its mismatch oligos directed against human HDAC-7 for 48 hours. ODN treatment conditions were as previously described.
# Cells were lysed in buffer containing 1% Triton X-100, 0.5% sodium deoxycholate, 5 mM EDTA, 25 mM Tris-HCl, pH 7.5, plus protease inhibitors. Total protein was quantified by the protein assay reagent from Bio-Rad (Hercules, Calif.). 100 ug of total protein was analyzed by SDS-PAGE. Next, total protein was transferred onto a PVDF membrane and probed with HDAC-7-specific primary antibodies.
# human HDAC-8 mRNA = test: HDAC-8 mRNA expression in A549 cells, Northern blot; format: cell-based; conditions: 24 hours
# Protocol: To identify antisense oligodeoxynucleotides (ODN) capable of inhibiting HDAC-8 expression in human cancer cells, fourteen phosphorothioate ODNs containing sequences complementary to the 5′ or 3′ UTR of the human […] (GenBank Accession No. AF230097) were initially screened in A549 cells at 100 nM. Cells were harvested after 24 hours of treatment, and HDAC-8 RNA expression was analyzed by Northern blot analysis. […] Total RNAs were harvested and were analyzed by Northern Blot. GAPDH expression was analyzed to indicate total RNA loading in each lane.
# as §4, §1, §5
# HDAC-4 = HDAC-4 (Homo sapiens, UniProt P56524); test: Enzyme inhibitory activity, HD4; format: biochemical
# Chain of HDAC-4 (P56524 whole entry): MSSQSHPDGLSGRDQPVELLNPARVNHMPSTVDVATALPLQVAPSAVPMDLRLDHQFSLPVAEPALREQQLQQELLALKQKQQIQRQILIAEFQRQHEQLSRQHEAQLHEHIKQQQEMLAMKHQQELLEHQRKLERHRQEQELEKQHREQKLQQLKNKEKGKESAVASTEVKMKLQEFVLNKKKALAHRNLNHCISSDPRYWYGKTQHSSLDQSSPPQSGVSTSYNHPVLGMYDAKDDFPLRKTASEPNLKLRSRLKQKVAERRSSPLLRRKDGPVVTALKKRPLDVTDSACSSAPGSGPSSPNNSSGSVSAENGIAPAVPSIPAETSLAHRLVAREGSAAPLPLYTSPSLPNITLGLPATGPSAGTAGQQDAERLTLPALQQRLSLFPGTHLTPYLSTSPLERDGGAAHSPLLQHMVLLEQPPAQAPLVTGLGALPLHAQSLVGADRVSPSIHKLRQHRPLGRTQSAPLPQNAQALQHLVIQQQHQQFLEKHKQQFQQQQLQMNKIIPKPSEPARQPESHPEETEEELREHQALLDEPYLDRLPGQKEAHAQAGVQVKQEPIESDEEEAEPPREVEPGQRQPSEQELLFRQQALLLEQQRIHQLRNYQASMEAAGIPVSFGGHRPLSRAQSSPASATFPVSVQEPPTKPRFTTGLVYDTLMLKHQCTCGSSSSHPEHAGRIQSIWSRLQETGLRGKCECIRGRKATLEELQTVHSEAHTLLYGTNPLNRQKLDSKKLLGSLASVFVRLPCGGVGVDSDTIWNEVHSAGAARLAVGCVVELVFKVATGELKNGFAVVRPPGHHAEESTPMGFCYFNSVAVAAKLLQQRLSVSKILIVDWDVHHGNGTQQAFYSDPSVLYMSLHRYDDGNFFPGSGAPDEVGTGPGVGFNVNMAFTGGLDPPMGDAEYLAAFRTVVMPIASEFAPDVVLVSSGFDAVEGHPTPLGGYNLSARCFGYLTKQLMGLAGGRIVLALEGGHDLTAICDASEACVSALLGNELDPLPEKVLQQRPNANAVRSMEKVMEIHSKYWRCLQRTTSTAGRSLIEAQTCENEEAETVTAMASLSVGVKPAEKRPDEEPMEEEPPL
# [1] = tested on: colon cancer cells HCT116; test: MTT assay, HCT116; format: cell-based, human; conditions: 72 hours; read-out: IC50 HCT 116 (MTT)
# Protocol: Effects of HDAC isotype-specific small molecule inhibitors on growth inhibition of various human cancer cells (from ATCC) in vitro were determined by MTT assays. Briefly, cells seeded in 96-well plates were incubated for 72 hours at 37° C. in a 5% CO2 incubator. MTT (Sigma) was added at a final concentration of 0.5 mg/ml and incubated with the cells for 4 hours before an equal volume of solubilization buffer (50% N,N-dimethylformamide, 20% SDS, pH 4.7) was added onto cultured cells. After overnight incubation, solubilized dye was quantified by colorimetric reading at […] using a reference at 630 nM. OD values were converted to cell numbers according to a standard growth curve of the relevant cell line. The concentration which reduces cell numbers to 50% of those of DMSO-treated cells is determined as MTT IC50. In Table 4, IC50s of several HDAC7 or HDAC8 inhibitors in MTT assays in various human cancer cell lines were listed. They include colon cancer cells HCT116 and SW48, lung cancer cells A549 and H446, breast cancer cells MCF-7 and MDAmb231, a prostate cancer cell line Du145 and a bladder cancer cell line T24.
# HDAC-1 = HDAC-1 (Homo sapiens, UniProt Q13547); test: Enzyme inhibitory activity, HD1; format: biochemical; conditions: read-out: IC50 HD 1
# Chain of HDAC-1 (Q13547 whole entry): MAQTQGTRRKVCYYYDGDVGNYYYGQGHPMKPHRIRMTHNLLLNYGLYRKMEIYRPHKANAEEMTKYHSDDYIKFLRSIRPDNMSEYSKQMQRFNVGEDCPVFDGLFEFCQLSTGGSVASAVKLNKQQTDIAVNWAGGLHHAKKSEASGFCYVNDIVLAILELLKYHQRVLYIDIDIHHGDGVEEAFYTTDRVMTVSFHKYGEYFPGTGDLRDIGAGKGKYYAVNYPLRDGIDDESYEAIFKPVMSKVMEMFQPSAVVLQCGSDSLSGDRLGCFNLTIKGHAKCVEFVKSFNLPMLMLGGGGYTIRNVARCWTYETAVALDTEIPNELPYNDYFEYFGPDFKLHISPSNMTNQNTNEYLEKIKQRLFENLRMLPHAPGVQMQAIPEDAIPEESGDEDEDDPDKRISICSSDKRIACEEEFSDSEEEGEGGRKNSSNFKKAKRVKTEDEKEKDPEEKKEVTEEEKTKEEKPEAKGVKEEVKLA
# HDAC-8 = target: T1, HDAC-8 (Homo sapiens, UniProt Q9BY41); test: Enzyme inhibitory activity, HD8; format: biochemical; conditions: read-out: IC50 HD 8
# T1 sequence (Q9BY41 1-377): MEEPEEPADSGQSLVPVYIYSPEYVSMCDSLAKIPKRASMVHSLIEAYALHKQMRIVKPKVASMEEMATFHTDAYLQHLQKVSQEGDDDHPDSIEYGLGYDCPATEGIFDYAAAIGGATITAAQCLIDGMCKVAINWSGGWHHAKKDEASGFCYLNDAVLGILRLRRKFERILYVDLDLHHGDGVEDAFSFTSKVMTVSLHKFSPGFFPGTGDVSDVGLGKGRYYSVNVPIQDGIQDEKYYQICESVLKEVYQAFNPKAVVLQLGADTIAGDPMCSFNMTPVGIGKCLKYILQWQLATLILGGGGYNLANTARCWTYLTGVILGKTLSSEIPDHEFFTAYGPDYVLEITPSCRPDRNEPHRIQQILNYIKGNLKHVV
molecule,measurement,setting,value
"5′-CAGGCTCACTTGACAAUGGC-3′ (sugars from the 5' end m4 d12 m4, all phosphorothioate, methylation of C not given here) [HD7 AS1, antisense oligo, Human HDAC7 5′-UTR]",Growth Inhibition A549,A549 cells,"+ (“+” means >35% inhibition of cell growth by antisense oligos (50 nM, 48 hour) compared to that of cells treated with lipofectin)"
same,p21 protein expression (FIG. 2),p21 protein,induced
same,"HDAC-7 mRNA expression, time course (FIG. 3)",human HDAC-7 mRNA; 50 nM,significantly block gene expression of human HDAC7 at the mRNA level by 24 hours
same,"HDAC-7 RNA expression, initial screen",human HDAC-7 mRNA,good antisense activities
same,"HDAC-7 mRNA expression, dose response (FIG. 1)",human HDAC-7 mRNA; listed as HDAC7 AS1,can inhibit human HDAC7 expression at the mRNA level; also recorded: inhibited in a dose-dependent manner
same,Growth Inhibition Du145,Du145 cells,"+ (“+” means >35% inhibition of cell growth by antisense oligos (50 nM, 48 hour) compared to that of cells treated with lipofectin)"
same,"HDAC-7 protein expression (FIG. 2, FIG. 4)",human HDAC-7 protein,inhibited
"5′-CGCUTTCCTTGTCATTGACA-3′ (sugars from the 5' end m4 d12 m4, all phosphorothioate, methylation of C not given here) [HD3 AS1, antisense oligo, Human HDAC3 3′-UTR]",Growth Inhibition Du145,Du145 cells,"+ (“+” means >35% inhibition of cell growth by antisense oligos (50 nM, 48 hour) compared to that of cells treated with lipofectin)"
"5′-CUCCGGCTCCTCCATCUUCC-3′ (sugars from the 5' end m4 d12 m4, all phosphorothioate, methylation of C not given here) [HDAC8 AS1, antisense oligo, Human HDAC8 5′-UTR]","HDAC-8 mRNA expression, dose response (FIG. 5)",human HDAC-8 mRNA; 25 nM or 50 nM,inhibited in a dose-dependent manner
same,"HDAC-8 RNA expression, initial screen",human HDAC-8 mRNA; 100 nM,good antisense activities
"5′-CUUCAGCCAGGATGCCCACA-3′ (sugars from the 5' end m4 d12 m4, all phosphorothioate, methylation of C not given here) [HDAC7 AS2, antisense oligo, Human HDAC7 3′-UTR]",p21 protein expression (FIG. 2),p21 protein,induced
same,"HDAC-7 RNA expression, initial screen",human HDAC-7 mRNA,good antisense activities
same,"HDAC-7 mRNA expression, dose response (FIG. 1)",human HDAC-7 mRNA,can inhibit human HDAC7 expression at the mRNA level; also recorded: inhibited in a dose-dependent manner
same,"HDAC-7 protein expression (FIG. 2, FIG. 4)",human HDAC-7 protein,inhibited
"5′-GCAGCGGCGGCAGCACCUCC-3′ (sugars from the 5' end m4 d12 m4, all phosphorothioate, methylation of C not given here) [HD5 AS1, antisense oligo, Human HDAC5 5′-UTR]",Growth Inhibition Du145,Du145 cells,"+ (“+” means >35% inhibition of cell growth by antisense oligos (50 nM, 48 hour) compared to that of cells treated with lipofectin)"
"CC(C=CC(=O)NO)=CC(C)Cc1ccc(N(C)C)cc1 (stereo not shown) [Compound 4, N-Hydroxy-4,6-dimethyl-7-[(4-N,N-dimethylaminophenyl)]-2,4-heptadienamide]",IC50,HDAC-4,> 10 µM
same,IC50,[1],6 µM
same,IC50,HDAC-1,2 µM
same,IC50,HDAC-8,0.4 µM

# From patent US20040072770A1, “Methods for specifically inhibiting histone deacetylase-7 and 8” (priority 2002, published 2004)
